Values quoted from earlier work in patent publication US6051591A, “Diazabicyclooctane derivatives” (Merck Sharp & Dohme Ltd., priority 1995, dated 2000).

How the values were obtained:
[1] = tested on: human 5-HT1Dα and 5-HT1Dβ receptor subtypes; details: cf. WO-A-91/17174, Table 1
[2] = therapeutic doses

## CNS(=O)(=O)Cc1ccc2[nH]cc(CCN(C)C)c2c1 [sumatriptan]
[1]
  discrimination between human 5-HT1Dα and 5-HT1Dβ receptor subtypes: barely discriminates
[2]
  adverse cardiovascular events in humans: certain adverse cardiovascular events
